Results from US20040077580A1, “Antisense modulation of PI3K P85 Expression” (priority 2000, published 2004).
Strand notation (5' to 3'): a small letter for the sugar, then the base; units joined by * are phosphorothioate-linked, units joined directly phosphodiester-linked; [ ] holds rarer units or linkages, { } end groups; capitals alone tell only the bases. e = 2'-O-(2-methoxyethyl) (MOE); [5mC] = 5-methylcytosine; d = 2'-deoxy (DNA)

Assays:
mouse PI3K p85 = assay: Inhibition of mouse PI3K p85 mRNA levels by antisense oligonucleotides, real-time quantitative RT-PCR; format: cell-based; parameters: concentration or dose not given beside the values; conditions: chimeric phosphorothioate 2′-MOE gapmers, averaged from two experiments
Protocol: Cells were harvested 16 hours after oligonucleotide treatment.
Target sites are indicated by nucleotide numbers, as given in the sequence source reference (Genbank accession no. U50413; SEQ ID NO: 48), to which the oligonucleotide binds.
Cytidine residues are 5-methylcytidines throughout the oligonucleotides.
Data were obtained by real-time quantitative RT-PCR as described in other examples herein and are averaged from two experiments. […] If present, “N.D.” indicates “no data”.

[1] = for Blood glucose level at day 14: 25 or 50 mg/kg intraperitoneal once a week
[2] = Serum insulin levels in ob/ob mice; format: in vivo, mouse; conditions: male ob/ob mice; 50 mg/kg intraperitoneal once a week for two weeks
Description: Treatment was continued for two weeks with serum insulin levels being measured on day 14.

PI3K p85 mRNA = PI3K p85 mRNA expression in liver and fat of treated mice; format: in vivo, mouse
Protocol: Ob/ob mice are used as a model of obesity. The ob/ob phenotype is due to a mutation in the leptin gene on a C57BL/6J-Lep(ob) background.
In accordance with the present invention, the effects of ISIS 131410 (SEQ ID NO: 56) on PI3K p85 mRNA expression was investigated in the ob/ob mouse model of obesity.
Mice were treated at a dose of 25 mg/kg of ISIS 141925 or 25 mg/kg of ISIS 131410.
Treatment was continued for two weeks after which the mice were sacrificed and tissues collected for mRNA analysis. RNA values were normalized and are expressed as a percentage of saline treated control.
Lean littermates (ob/wt) were also examined for mRNA reduction of PI3K p85 in the liver at doses of 25 and 50 mg/kg of ISIS 131410 or saline treatment. In these animals, at both doses, the level of expression was reduced only minimally to 80% of control.

PI3K p85 splice variants = assay: Expression of PI3K p85 splice variants in liver, immunoprecipitation with p110 and Western blot with p85pan antibody; format: in vivo, mouse; conditions: livers of both ob/ob and wild-type mice
Description: ISIS 131410 is one of several antisense oligonucleotides of the present invention that hybridize to the longer p85α splice variant and not to the p55α or the p50α splice variant. Studies were therefore designed to study the effects of this antisense oligonucleotide on expression product of PI3K p85α splice variant.

[3] = ob/ob mice, starting level 250 mg/dL at day 1
[4] = male ob/ob mice, 25 mg/kg intraperitoneal once a week for two weeks, percentage of saline treated control

Row | Substance | % Inhib. of mouse PI3K p85 mRNA levels (mouse PI3K p85) | further results
1 | 131410 (antisense e[5mC]*e[5mC]*eT*eG*eG*d[5mC]*d[5mC]*dA*dT*d[5mC]*dA*d[5mC]*dT*dG*dA*eA*eT*e[5mC]*e[5mC]*eA) [compound 131410] | 95% | 
2 | cgctccactctcagcttcac (e[5mC]*eG*e[5mC]*eT*e[5mC]*d[5mC]*dA*d[5mC]*dT*d[5mC]*dT*d[5mC]*dA*dG*d[5mC]*eT*eT*e[5mC]*eA*e[5mC]; antisense) [ISIS 131407] | at least 60% | 
3 | gcactcatgtctgcagctct (eG*e[5mC]*eA*e[5mC]*eT*d[5mC]*dA*dT*dG*dT*d[5mC]*dT*dG*d[5mC]*dA*eG*e[5mC]*eT*e[5mC]*eT; antisense) [ISIS 131409] | at least 60% | 
4 | 131407 (antisense e[5mC]*eG*e[5mC]*eT*e[5mC]*d[5mC]*dA*d[5mC]*dT*d[5mC]*dT*d[5mC]*dA*dG*d[5mC]*eT*eT*e[5mC]*eA*e[5mC]) [compound 131407] | 85% | 
5 | 131409 (antisense eG*e[5mC]*eA*e[5mC]*eT*d[5mC]*dA*dT*dG*dT*d[5mC]*dT*dG*d[5mC]*dA*eG*e[5mC]*eT*e[5mC]*eT) [compound 131409] | 85% | 
6 | ccagtggtttcattgtagcc (e[5mC]*e[5mC]*eA*eG*eT*dG*dG*dT*dT*dT*d[5mC]*dA*dT*dT*dG*eT*eA*eG*e[5mC]*e[5mC]; antisense) [ISIS 131411] | at least 60% | 
7 | GCCACCGCCTATGTCTTCTC (listed as DNA, chemistry not given here) [ISIS 141925, the control oligonucleotide; scrambled control, reference compound] |  | Blood glucose level at day 14 [1, 3]: 240 mg/dL; Serum insulin level at day 14 [2]: 28 ng/mL; PI3K p85 mRNA level in fat (PI3K p85 mRNA; [4]): no reduction; PI3K p85 mRNA level in liver (PI3K p85 mRNA; [4]): no reduction
8 | ggtgtaagagtgtaatcgcc (eG*eG*eT*eG*eT*dA*dA*dG*dA*dG*dT*dG*dT*dA*dA*eT*e[5mC]*eG*e[5mC]*e[5mC]; antisense) [ISIS 131417] | at least 60% | 
9 | 131418 (antisense e[5mC]*e[5mC]*eT*eG*e[5mC]*dT*dG*dG*dT*dA*dT*dT*dT*dG*dG*eA*e[5mC]*eA*e[5mC]*eT) [compound 131418] | 50% | 
10 | 131412 (antisense e[5mC]*eT*eT*eG*e[5mC]*dT*dG*d[5mC]*dT*d[5mC]*d[5mC]*dG*dT*dG*dT*e[5mC]*eA*eG*e[5mC]*eT) [compound 131412] | 85% | 
11 | cttgctgctccgtgtcagct (e[5mC]*eT*eT*eG*e[5mC]*dT*dG*d[5mC]*dT*d[5mC]*d[5mC]*dG*dT*dG*dT*e[5mC]*eA*eG*e[5mC]*eT; antisense) [ISIS 131412] | at least 60% | 
12 | gctcccgacattccacgtct (eG*e[5mC]*eT*e[5mC]*e[5mC]*d[5mC]*dG*dA*d[5mC]*dA*dT*dT*d[5mC]*d[5mC]*dA*e[5mC]*eG*eT*e[5mC]*eT; antisense) [ISIS 131421] | at least 60% | 
13 | cgatctctcggtactcagct (e[5mC]*eG*eA*eT*e[5mC]*dT*d[5mC]*dT*d[5mC]*dG*dG*dT*dA*d[5mC]*dT*e[5mC]*eA*eG*e[5mC]*eT; antisense) [ISIS 131420] | at least 60% | 
14 | 131408 (antisense e[5mC]*e[5mC]*eA*eT*e[5mC]*dT*dG*dT*d[5mC]*d[5mC]*dT*d[5mC]*d[5mC]*dA*dT*e[5mC]*eA*eA*e[5mC]*eG) [compound 131408] | 88% | 
15 | 131419 (antisense eG*e[5mC]*eT*e[5mC]*e[5mC]*dT*dG*dG*dG*dT*dT*dT*dG*dG*d[5mC]*eA*eT*eT*eG*eT) [compound 131419] | 45% | 
16 | 131411 (antisense e[5mC]*e[5mC]*eA*eG*eT*dG*dG*dT*dT*dT*d[5mC]*dA*dT*dT*dG*eT*eA*eG*e[5mC]*e[5mC]) [compound 131411] | 90% | 
17 | cctggccatcactgaatcca (CCTGGCCATCACTGAATCCA; chemistry not given here) [ISIS 131410] | at least 60% | Hypoglycemia as a result of oligonucleotide treatment ([1]; mouse, in vivo): no hypoglycemia induced; Blood glucose level at day 14 [1, 3]: 150 mg/dL; Blood glucose level at day 7 ([1]; ob/ob mice, all doses (25 or 50 mg/kg) intraperitoneal once a week, starting level 250 mg/dL at day 1): 180 mg/dL; Blood glucose level, constant throughout the study (average) ([1]; wild-type mice, all treatment groups (25 or 50 mg/kg), two weeks): 150 mg/dL; Species of PI3K p85 splice variant present in liver (PI3K p85 splice variants): alters the species of PI3K p85 variant present in favor of the p50α variant; Serum insulin level at day 14 [2]: 5 ng/mL; PI3K p85 mRNA level in liver (PI3K p85 mRNA; lean littermates (ob/wt), at both doses, 25 and 50 mg/kg): 80 % of control; PI3K p85 mRNA level in fat (PI3K p85 mRNA; [4]): 55 % of control; PI3K p85 mRNA level in liver (PI3K p85 mRNA; [4]): 52 % of control

Row | Substance | % Inhib. of mouse PI3K p85 mRNA levels (mouse PI3K p85) | further results
18 | 131417 (antisense eG*eG*eT*eG*eT*dA*dA*dG*dA*dG*dT*dG*dT*dA*dA*eT*e[5mC]*eG*e[5mC]*e[5mC]) [compound 131417] | 78% | 
19 | 131420 (antisense e[5mC]*eG*eA*eT*e[5mC]*dT*d[5mC]*dT*d[5mC]*dG*dG*dT*dA*d[5mC]*dT*e[5mC]*eA*eG*e[5mC]*eT) [compound 131420] | 79% | 
20 | 131416 (antisense eT*eG*e[5mC]*eT*eG*dG*dT*dG*d[5mC]*dT*dG*dG*d[5mC]*dT*dG*eT*e[5mC]*eT*e[5mC]*eT) [compound 131416] | 68% | 
21 | 131426 (antisense eG*e[5mC]*eA*eT*e[5mC]*dA*dA*dT*dG*dT*dT*d[5mC]*dT*d[5mC]*dT*e[5mC]*eA*eA*eA*eG) [compound 131426] | 75% | 
22 | 131414 (antisense eT*e[5mC]*eG*eG*e[5mC]*dG*dA*dG*dA*dT*dA*dG*d[5mC]*dG*dT*eT*eT*eG*eA*eA) [compound 131414] | 73% | 
23 | tcggcgagatagcgtttgaa (eT*e[5mC]*eG*eG*e[5mC]*dG*dA*dG*dA*dT*dA*dG*d[5mC]*dG*dT*eT*eT*eG*eA*eA; antisense) [ISIS 131414] | at least 60% | 
24 | 131415 (antisense eA*eT*eA*e[5mC]*eT*dG*dA*dA*dG*d[5mC]*dG*dT*dA*dA*dG*e[5mC]*e[5mC]*eA*eA*e[5mC]) [compound 131415] | 75% | 
25 | 131422 (antisense e[5mC]*e[5mC]*eA*eT*eA*dG*d[5mC]*d[5mC]*dG*dG*dT*dG*dG*d[5mC]*dA*eG*eT*e[5mC]*eT*eT) [compound 131422] | 40% | 
26 | tgctggtgctggctgtctct (eT*eG*e[5mC]*eT*eG*dG*dT*dG*d[5mC]*dT*dG*dG*d[5mC]*dT*dG*eT*e[5mC]*eT*e[5mC]*eT; antisense) [ISIS 131416] | at least 60% | 
27 | ccatctgtcctccatcaacg (e[5mC]*e[5mC]*eA*eT*e[5mC]*dT*dG*dT*d[5mC]*d[5mC]*dT*d[5mC]*d[5mC]*dA*dT*e[5mC]*eA*eA*e[5mC]*eG; antisense) [ISIS 131408] | at least 60% | 
28 | 131413 (antisense eT*e[5mC]*eT*e[5mC]*e[5mC]*dA*dA*dG*dT*d[5mC]*d[5mC]*dA*d[5mC]*dT*dG*eA*e[5mC]*eG*e[5mC]*eG) [compound 131413] | 56% | 
29 | 131421 (antisense eG*e[5mC]*eT*e[5mC]*e[5mC]*d[5mC]*dG*dA*d[5mC]*dA*dT*dT*d[5mC]*d[5mC]*dA*e[5mC]*eG*eT*e[5mC]*eT) [compound 131421] | 65% | 
30 | 131406 (antisense e[5mC]*eG*e[5mC]*eT*eG*d[5mC]*dT*dT*d[5mC]*d[5mC]*dT*d[5mC]*d[5mC]*dA*dA*e[5mC]*eT*e[5mC]*eG*eG) [compound 131406] | 56% | 
31 | atactgaagcgtaagccaac (eA*eT*eA*e[5mC]*eT*dG*dA*dA*dG*d[5mC]*dG*dT*dA*dA*dG*e[5mC]*e[5mC]*eA*eA*e[5mC]; antisense) [ISIS 131415] | at least 60% | 
32 | gcatcaatgttctctcaaag (eG*e[5mC]*eA*eT*e[5mC]*dA*dA*dT*dG*dT*dT*d[5mC]*dT*d[5mC]*dT*e[5mC]*eA*eA*eA*eG; antisense) [ISIS 131426] | at least 60% | 
33 | 131423 (antisense eT*eT*eT*eG*e[5mC]*dT*dT*d[5mC]*dT*d[5mC]*dA*dG*dA*dG*dG*e[5mC]*e[5mC]*eT*eT*eG) [compound 131423] | 40% | 
